Experimental data published in patent publication US20150072416A1, “METABOLITE FOR IMPROVING PRODUCTION, MAINTENANCE AND PROLIFERATION OF PLURIPOTENT STEM CELLS, COMPOSITION COMPRISING THE SAME, AND METHOD OF CULTURING PLURIPOTENT STEM CELL USING THE SAME” (KOREA RESEARCH INSTITUTE OF BIOSCIENCE AND BIOTENOLOGY, priority 2012, published 2015).

Legend:
[1] = system: human foreskin fibroblasts (hFFs); test: Reprogramming efficiency of human fibroblasts into induced pluripotent stem cells (AP-positive colonies); format: cell-based; conditions: for efficiency of reprogramming by timing of treatment: 1 mM
Experimental: Reprogramming efficiency was determined by measuring the number of colonies showing a positive response in the pluripotency-specific marker alkaline phosphatase (AP) staining and having hESC-like morphology. For production of iPSC, human foreskin fibroblasts (hFFs) were seeded on gelatin-coated 6-well plates at a concentration of 1×10^5 cells per well at 6 hours before transfection and were transfected with virus in the presence of polybrene (6 μg/ml). At 5 days after the transfection, the hFFs were collected by trypsin treatment and reseeded on Matrigel-coated 6-well plates at a concentration of 5-6×10^4 cells per well in order to perform experiments in feeder-free conditions. The medium was replaced with MEF-CM medium containing 10 ng/ml of bFGF. The medium was replaced at 2-day intervals. At 20 days after the transfection, hESC-like colonies were collected and transferred to 12-well plates having MEFs as feeder cells, and then the colonies were continuously cultured using the hESC culture method described in Example 1. In order to measure the efficiency of reprogramming into human induced pluripotent stem cells, the number of colonies stained with the embryonic stem cell marker ALP on the Matrigel-coated 6-well plate was counted, and the efficiency of reprogramming was calculated. Each experiment was performed in triplicate. AP staining was performed using a commercial AP kit (Sigma) according to the manufacturer's instruction. Images of AP-positive cells were recorded with HP Scanjet G4010. Also, bight field images were obtained with an Olympus microscope (IX51, Olympus, Japan). In order to examine the change in reprogramming efficiency of human fibroblasts caused by nicotinamide, retrovirus expressing the reprogramming factors Oct4, Sox2, Klf4 and c-Myc was transfected at an MOI of 1. Reprogramming efficiencies caused by the addition of nicotinamide and other NAD precursors were examined.

[2] = system: human fibroblasts transfected with reprogramming factor OSKM; test: Senescence-associated beta-galactosidase staining and senescence-associated DNA damage staining during reprogramming; format: cell-based; conditions: for decrease in number of senescent cells: 10 mM
Experimental: On day 26 of induction of reprogramming, the cells were fixed with a fixation solution at room temperature for 10 minutes, and then stained with a β-galactosidase solution at room temperature for 15 minutes. Next, the DNA was stained with DAPI (4′,6-diamidino-2-phenylindole) for 5 minutes, and then the cells were imaged by phase-contrast and fluorescence microscopy. The number of cells having senescence (green) damaged DNA (blue combined points) was counted and quantified relative to the number of normal cells.

[3] = system: promoter regions of Nanog and Oct4; test: Chromatin immunoprecipitation of histone 3 methylation at Nanog and Oct4 promoters; format: cell-based, human
Experimental: Formaldehyde was added to a cell culture to fix the cells, and then the chromatin was fragmented to a suitable size by sonication. The chromatin was immunoprecipitated with antibodies to lysine residues 4 and 27 of histone 3, and then the DNA was collected and amplified by real-time polymerase chain reaction using primers for the Oct4 and Nanog promoter regions.

[4] = system: human fibroblasts and human fibroblasts transfected with reprogramming factors; test: Cell growth and proliferation during reprogramming (viable cell count, BrdU, live-cell imaging); format: cell-based
Experimental: Human fibroblasts were seeded in a 6-well culture dish at a density of about 1×10^5 cells per well. The seeded cells were cultured for 26 days under the indicated culture conditions. To count the cell number, the cells were washed with PBS and treated with trypsin. The cell suspension was mixed with 0.4% (wt/vol) trypan blue solution, and the number of viable cells was counted on day 19 and day 26 using a hemocytometer (FIG. 10). Each experiment was performed in triplicate. Specifically, for BrdU incorporation, cells were incubated in the presence of 30 μM BrdU at 37° C. for 1 hour. After washing with PBS, the cells were fixed with 4% paraformaldehyde for 15 minutes and reacted in 1N HCl at room temperature for 15 minutes. The sample was washed and reacted with 0.1 M sodium tetraborate for 15 minutes. After washing, the cells were reacted with anti-BrdU antibody in 3% BSA-containing PBS for 1 hour, and then reacted with FITC-conjugated secondary antibody for 30 minutes. […] On day 12 of induction of reprogramming, virus expressing the cell-cycle regulators Geminin-GFP (green) and Cdt1-RFP (red) was introduced into the cells for 2 hours while slowly shaking the cells, and then an accelerator was added to the cells, followed by culture for 1 hour. The medium was replaced with fresh medium, and the cells were further cultured overnight and imaged with a fluorescence microscope. The images were obtained for at least 4 sections per sample, and the number of resting-stage cells (red) and dividing cells (green) was counted. The ratio of dividing cells was quantified by the green/red ratio.

**Q.** Which results are given for `NC(=O)c1cccnc1` [nicotinamide]?
**A.** increase in reprogramming efficiency (AP-positive colonies) ([1]; 0.1 mM nicotinamide, compared to untreated group): 13 times; increase in reprogramming efficiency (AP-positive colonies) ([1]; 1 mM nicotinamide, compared to untreated group): 28 times; increase in reprogramming efficiency (AP-positive colonies) ([1]; 10 mM nicotinamide, compared to untreated group): 16 times; increase in reprogramming efficiency (AP-positive colonies) ([1]; 20 mM nicotinamide, compared to untreated group): 2 times; increase in reprogramming efficiency (AP-positive colonies) ([1]; compared to the addition of other NAD precursors, OSKM retrovirus MOI 1): about 17 times; efficiency of reprogramming by timing of treatment ([1]; continuous treatment throughout the process of inducing reprogramming): highest increase; reprogramming efficiency, same cell number reseeded ([1]; nicotinamide for 5 days after infection, not added after reseeding, vs untreated control): increase in reprogramming efficiency; reprogramming efficiency, same cell number reseeded ([1]; nicotinamide only after reseeding (21 days), not in initial stage, vs untreated): increase in reprogramming efficiency; efficiency of reprogramming by timing of treatment ([1]; treatment in initial stage immediately after viral infection): most effectively increased; decrease in cellular senescence-associated DNA damage ([2]; 1 mM, compared to control group): 83.0±0.5%; decrease in ratio of cells stained with senescence-associated beta-galactosidase ([2]; 1 mM, day 19, compared to untreated group): 88.1±1.4%; decrease in ratio of cells stained with senescence-associated beta-galactosidase ([2]; 1 mM, day 26, compared to untreated group): 76.9±2.5%; decrease in number of senescent cells ([2]; day 19, compared to control group): 76.1±1.4%; decrease in number of senescent cells ([2]; day 21, compared to control group): 30.8±9.0%; methylation of lysine residue 4 of histone 3 in promoter regions of Nanog and Oct4 [3]: increased; methylation of residue 27 of histone 3 in promoter regions of Nanog and Oct4 [3]: decreased; ratio of proliferating cells (live cell imaging) ([4]; 1 mM, day 12 of induction of reprogramming): increased; number of healthy viable cells ([4]; 0.1, 1 and 10 mM, days 19 and 26, concentration-dependent): increased; number of actually dividing cells incorporated with BrdU ([4]; 0.1-1 mM, day 19 of induction of reprogramming): significantly increased; optimal nicotinamide concentration for promoting cell growth ([4]; culture process for inducing reprogramming): 1 mM
